What was measured:
[1] = molecular target: T1, PDK1 kinase (Homo sapiens, UniProt O15530); assay: PDK1 Kinase Alpha Screen Assay; assay type: biochemical; settings: PDK1 Kinase Alpha Screen Assay; read-out: PDK1 IC50
T1 sequence (O15530 1-556): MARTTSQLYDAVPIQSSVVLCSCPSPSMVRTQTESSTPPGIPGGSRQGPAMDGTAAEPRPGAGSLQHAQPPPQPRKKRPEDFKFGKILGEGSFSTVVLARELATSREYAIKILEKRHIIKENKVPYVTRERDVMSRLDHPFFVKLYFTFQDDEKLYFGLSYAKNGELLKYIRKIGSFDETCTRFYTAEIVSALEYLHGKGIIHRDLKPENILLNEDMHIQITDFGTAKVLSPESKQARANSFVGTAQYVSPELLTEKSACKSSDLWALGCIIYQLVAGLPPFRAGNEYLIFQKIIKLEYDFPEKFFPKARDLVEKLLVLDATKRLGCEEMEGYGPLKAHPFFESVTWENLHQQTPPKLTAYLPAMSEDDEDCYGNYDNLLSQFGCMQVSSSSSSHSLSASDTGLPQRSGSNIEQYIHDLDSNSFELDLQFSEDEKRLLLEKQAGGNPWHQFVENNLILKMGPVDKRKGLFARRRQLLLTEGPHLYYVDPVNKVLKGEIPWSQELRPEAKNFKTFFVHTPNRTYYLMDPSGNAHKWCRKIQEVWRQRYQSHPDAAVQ
Procedure, shortened: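 Test compounds were incubated with PDK1 kinase, 10 uM ATP and 50 nM biotinylated peptide substrate for 3-18 hours at pH 7.5 with 2.5% DMSO. Peptide phosphorylation was then detected by AlphaScreen proximity luminescence using a phospho-(Ser/Thr) PKA substrate antibody.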

[2] = tested on: PC-3 cells; assay: Cell Proliferation Assay (Cell Titer Glo), PC-3 cell line; assay type: cell-based; settings: Homo sapiens, PC-3, Cell Proliferation Assay, PC3; read-out: CPEC50 PC3
Procedure, shortened: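 PC-3 cells, 1000 cells/well, left to adhere 3-5 h, then exposed for 3 days at 37° C to compounds as 1:3 serial dilutions from 500× DMSO stocks diluted in growth medium. Medium then replaced with fresh medium and viability read by Cell Titer Glo luminescence.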

Row | SMILES | IC50 [1] | EC50 [2]
1 | COc1cc(Nc2ncc3ccc(OC4CCN(C(C)C)CC4)cc3n2)cc(OC)c1 [Compound 565, N-(3,5-dimethoxyphenyl)-7-(1-isopropylpiperidin-4-yloxy)quinazolin-2-amine] | 5 to 10 µM | 5 to 10 µM
2 | COc1cc(Nc2ncc3ccc(OC4CCN(C)CC4)cc3n2)cc(OC)c1 [Compound 566, N-(3,5-dimethoxyphenyl)-7-(1-methylpiperidin-4-yloxy)quinazolin-2-amine] | < 5 µM | < 5 µM
3 | Fc1cccc(Nc2ncc3ccc(OC4CCNCC4)cc3n2)c1 [Compound 567, N-(3-fluorophenyl)-7-(piperidin-4-yloxy)quinazolin-2-amine] | < 5 µM | < 5 µM
4 | Fc1cc(F)cc(Nc2ncc3ccc(OC4CCNCC4)cc3n2)c1 [Compound 568, N-(3,5-difluorophenyl)-7-(piperidin-4-yloxy)quinazolin-2-amine] | < 5 µM | < 5 µM
5 | FC(F)(F)c1cccc(Nc2ncc3ccc(OC4CCNCC4)cc3n2)c1 [Compound 569, 7-(piperidin-4-yloxy)-N-(3-(trifluoromethyl)phenyl)quinazolin-2-amine] | < 5 µM | < 5 µM
6 | CS(=O)(=O)c1cccc(Nc2ncc3ccc(OC4CCNCC4)cc3n2)c1 [Compound 570, N-(3-(methylsulfonyl)phenyl)-7-(piperidin-4-yloxy)quinazolin-2-amine] | < 5 µM | < 5 µM
7 | COc1cccc(Nc2ncc3ccc(OC4CCNCC4)cc3n2)c1 [Compound 571, N-(3-methoxyphenyl)-7-(piperidin-4-yloxy)quinazolin-2-amine] | < 5 µM | < 5 µM
8 | c1cc(Nc2ncc3ccc(OC4CCNCC4)cc3n2)cc(N2CCOCC2)c1 [Compound 572, N-(3-morpholinophenyl)-7-(piperidin-4-yloxy)quinazolin-2-amine] | < 5 µM | < 5 µM
9 | CC(C)N1CCC(Oc2ccc3cnc(Nc4cccc(F)c4)nc3c2)CC1 [Compound 573, N-(3-fluorophenyl)-7-(1-isopropylpiperidin-4-yloxy)quinazolin-2-amine] | < 5 µM | 5 to 10 µM

Second part, the compound after the results:

Row | IC50 [1] | EC50 [2] | SMILES
10 | < 5 µM | < 5 µM | CC(C)N1CCC(Oc2ccc3cnc(Nc4cc(F)cc(F)c4)nc3c2)CC1 [Compound 574, N-(3,5-difluorophenyl)-7-(1-isopropylpiperidin-4-yloxy)quinazolin-2-amine]
11 | < 5 µM | < 5 µM | CC(C)N1CCC(Oc2ccc3cnc(Nc4cccc(C(F)(F)F)c4)nc3c2)CC1 [Compound 575, 7-(1-isopropylpiperidin-4-yloxy)-N-(3-(trifluoromethyl)phenyl)quinazolin-2-amine]
12 | < 5 µM | 5 to 10 µM | COc1cccc(Nc2ncc3ccc(OC4CCN(C(C)C)CC4)cc3n2)c1 [Compound 576, 7-(1-isopropylpiperidin-4-yloxy)-N-(3-methoxyphenyl)quinazolin-2-amine]
13 | < 5 µM | 5 to 10 µM | CC(C)N1CCC(Oc2ccc3cnc(Nc4ccc5nn[nH]c5c4)nc3c2)CC1 [Compound 577, N-(1H-benzo[d][1,2,3]triazol-6-yl)-7-(1-isopropylpiperidin-4-yloxy)quinazolin-2-amine]
14 | < 5 µM | 5 to 10 µM | CC(C)N1CCC(Oc2ccc3cnc(Nc4cccc(N5CCCC5)c4)nc3c2)CC1 [Compound 579, 7-(1-isopropylpiperidin-4-yloxy)-N-(3-(pyrrolidin-1-yl)phenyl)quinazolin-2-amine]
15 | 5 to 10 µM | 5 to 10 µM | CC(C)N1CCC(Oc2ccc3cnc(Nc4cccc(N5CCOCC5)c4)nc3c2)CC1 [Compound 580, 7-(1-isopropylpiperidin-4-yloxy)-N-(3-morpholinophenyl)quinazolin-2-amine]
16 | < 5 µM | < 5 µM | CN1CCN(c2cccc(Nc3ncc4ccc(OC5CCNCC5)cc4n3)c2)CC1 [Compound 581, N-(3-(4-methylpiperazin-1-yl)phenyl)-7-(piperidin-4-yloxy)quinazolin-2-amine]
